IC50 and Activity data for one compound are collected here from ChEMBL document CHEMBL1681698, “HY251, a novel decahydrocyclopenta[a]indene analog, from Aralia continentalis induces apoptosis via down-regulation of AR expression in human prostate cancer LNCaP cells” (Bioorg Med Chem Lett, 2011).

The source made the active and inactive calls. The calls are words filed in the database; no cut-off is given here.

In experiment [1] the test system is LNCaP. Nature of the experiment: Induction of apoptosis in human androgen-dependent LNCAP cells assessed as […] after 24 hrs by MTT assay. The class given is functional, cell-based. Background: Formazan colour is commonly taken as a measure of viable cells.
Experiment [2] has as its system LNCaP. Nature of the experiment: Induction of apoptosis in human androgen-dependent LNCAP cells assessed as nuclei DNA fragmentation at 95 uM after 24 hrs by TUNEL assay. The experiment is classed as functional, cell-based.
The subject of experiment [3] is LNCaP. As to the kind of experiment: Induction of apoptosis in human androgen-dependent LNCAP cells assessed as increase in active caspase 9 at 95 uM up to 48 hrs by Western blot analysis. The class given is functional, cell-based.
Experiment [4] has as its system LNCaP. Nature of the experiment: Induction of apoptosis in human androgen-dependent LNCAP cells assessed as increase in active caspase 3 at 95 uM up to 48 hrs by Western blot analysis. The experiment is classed as functional, cell-based.
Experiment [5] has as its system LNCaP. As to the kind of experiment: Induction of apoptosis in human androgen-dependent LNCAP cells assessed as PARP cleavage at 95 uM after 12 hrs by Western blot analysis. The class given is functional, cell-based. Background: Immunoblotting shows a protein as a band on a membrane.
Experiment [6] relates to LNCaP. Nature of the experiment: Induction of apoptosis in human androgen-dependent LNCAP cells assessed as cytochrome c release from mitochondria at 95 uM after 24 hrs by Western blot analysis. The experiment is classed as functional, cell-based.
For experiment [7], the system named is LNCaP. As to the kind of experiment: Induction of apoptosis in human androgen-dependent LNCAP cells assessed as inhibition of androgen receptor expression at 95 uM by Western blot analysis. The class given is functional, cell-based. Conditions: TDE = time-dependent effect.
For experiment [8], the system named is LNCaP. As to the kind of experiment: Induction of apoptosis in human androgen-dependent LNCAP cells assessed as inhibition of PSA protein expression at 95 uM by Western blot analysis. Conditions: TDE = time-dependent effect. The class given is functional, cell-based.
The subject of experiment [9] is LNCaP. As to the kind of experiment: Induction of apoptosis in human androgen-dependent LNCAP cells assessed as inhibition of androgen receptor gene expression at 95 uM by RT-PCR analysis. The experiment is classed as functional, cell-based.
Experiment [10] relates to LNCaP. Nature of the experiment: Induction of apoptosis in human androgen-dependent LNCAP cells assessed as inhibition of PSA gene expression at 95 uM by RT-PCR analysis. The experiment is classed as functional, cell-based.
Experiment [11] concerns LNCaP. Nature of the experiment: Induction of apoptosis in human androgen-dependent LNCAP cells assessed as inhibition of androgen receptor gene expression at 95 uM by RT-PCR analysis in presence of 1 nM […]. The class given is functional, cell-based.
Experiment [12] relates to LNCaP. As to the kind of experiment: Induction of apoptosis in human androgen-dependent LNCAP cells assessed as inhibition of PSA gene expression at 95 uM by RT-PCR analysis in presence of 1 nM […]. The experiment is classed as functional, cell-based.
Experiment [13] in a line: Induction of apoptosis in human hormone-refractory C4-2B cells assessed as cell viability after 24 hrs by MTT assay. The class given is functional. Conditions: LNCaP C4-2B.

As for `C=CC1CC2(O)CC3(O)CCC=CC3C2(O)C1(O)CCC` (stereo not drawn), the figures for the IC50 in experiment [1] and in experiment [13] were 95 µM and 199 µM, respectively. For the same compound, the outcome in [2], in [3], in experiment [4], in experiment [5], in [6] and in [9] was Active. In addition, the result in experiment [10], in experiment [11] and in [12] was Active. Further, the Activity result in experiment [7] and in experiment [8] was “tde” each time.

In general, IC50 refers to the concentration at which inhibition is half-maximal.
